Reference: ChEMBL document CHEMBL5241114, “A comprehensive review of BET-targeting PROTACs for cancer therapy” (Bioorg Med Chem, 2022)

Experiments:
[1] = molecular target: T1, Bromodomain-containing protein 4 (Homo sapiens, UniProt O60885); assay: Binding affinity to BRD4 BD2 (unknown origin) assessed as dissociation constant by isothermal titration calorimetry assay
[2] = molecular target: von Hippel-Lindau disease tumor suppressor (Homo sapiens, UniProt P40337); assay: Binding affinity to VHL (unknown origin) assessed as dissociation constant by isothermal titration calorimetry assay
[3] = molecular target: T2, Bromodomain-containing protein 2 (Homo sapiens, UniProt P25440); assay: Binding affinity to BRD2 BD1 (unknown origin) assessed as dissociation constant by isothermal titration calorimetry assay
[4] = molecular target: T1, Bromodomain-containing protein 4; assay: Induction of BRD4 degradation in human 22Rv1 cells assessed as downregulation of c-Myc expression at 250 nM measured after 2 hrs relative to control; format: cell-based
MV4-11 [5] = assay: Antiproliferative activity against human MV4-11 cells assessed as reduction in cell viability incubated for 48 to 72 hrs by Celltiter-Glo cell viability assay; format: functional, cell-based
[6] = molecular target: T1, Bromodomain-containing protein 4; assay: Induction of BRD4 degradation in human HeLa cells measured after 4 hrs; format: cell-based
CWR22R [7] = assay: Antiproliferative activity against human 22Rv1 cells assessed as reduction in cell viability incubated for 48 to 72 hrs by Celltiter-Glo cell viability assay; format: functional, cell-based
[8] = molecular target: Bromodomain-containing protein 3 (Homo sapiens, UniProt Q15059); assay: Induction of BRD3 degradation in human HeLa cells measured after 4 hrs; format: cell-based
[9] = molecular target: T1, Bromodomain-containing protein 4; assay: Induction of BRD4 degradation in human HEK293T cells; format: cell-based
[10] = molecular target: T1, Bromodomain-containing protein 4; assay: Induction of BRD4 degradation in human HEK293T cells at 10 uM measured at 6 hrs relative to control; format: cell-based
CWR22R [11] = assay: Antitumor activity against human 22Rv1 cells xenografted in Nu/Nu mouse assessed as tumor growth inhibition at 30 mg/kg, sc; format: functional; conditions: read-out: TGI
EOL1 = assay: Antiproliferative activity against human EOL1 cells assessed as inhibition of cell growth; format: functional, cell-based
[12] = molecular target: T2, Bromodomain-containing protein 2; assay: Induction of BRD2 degradation in human LNCaP-95 cells incubated for 16 hrs by Western blot analysis; format: cell-based
[13] = molecular target: T2, Bromodomain-containing protein 2; assay: Induction of BRD2 degradation in human VCaP cells incubated for 16 hrs by Western blot analysis; format: cell-based
[14] = molecular target: T2, Bromodomain-containing protein 2; assay: Induction of BRD2 degradation in human 22Rv cells incubated for 16 hrs by Western blot analysis; format: cell-based; conditions: 22rv1
Caspase-3/Caspase-7 = molecular target: T3, Caspase-3/Caspase-7 (Homo sapiens, UniProt P42574+P55210); assay: Activation of caspase 3/7 in human 22Rv1 cells by Caspase-Glo reagent based analysis; format: cell-based
T3 sequence (P42574 whole entry): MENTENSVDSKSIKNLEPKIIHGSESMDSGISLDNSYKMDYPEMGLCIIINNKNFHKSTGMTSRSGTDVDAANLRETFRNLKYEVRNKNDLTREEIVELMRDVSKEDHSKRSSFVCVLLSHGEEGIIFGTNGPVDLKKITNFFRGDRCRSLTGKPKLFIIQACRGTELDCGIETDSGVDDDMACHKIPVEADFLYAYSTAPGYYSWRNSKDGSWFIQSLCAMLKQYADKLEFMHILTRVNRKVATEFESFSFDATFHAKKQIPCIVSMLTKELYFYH
T3 sequence (P55210 whole entry): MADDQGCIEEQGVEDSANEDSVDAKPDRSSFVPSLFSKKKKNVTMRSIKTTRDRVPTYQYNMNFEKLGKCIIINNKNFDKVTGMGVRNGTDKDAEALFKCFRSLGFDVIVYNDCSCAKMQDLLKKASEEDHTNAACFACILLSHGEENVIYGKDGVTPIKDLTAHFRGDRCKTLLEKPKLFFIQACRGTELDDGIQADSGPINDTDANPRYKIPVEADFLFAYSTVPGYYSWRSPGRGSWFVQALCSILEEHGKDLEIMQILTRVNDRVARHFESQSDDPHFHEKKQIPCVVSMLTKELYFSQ

[15] = molecular target: von Hippel-Lindau disease tumor suppressor/Bromodomain-containing protein 2 (Homo sapiens, UniProt P25440+P40337); assay: Protac activity at BRD2/VHL-bound E3 ligase in human 22Rv1 cells assessed as reduction c-Myc level incubated for 24 hrs by Western blot analysis; format: cell-based
HL-60 = assay: Antiproliferative activity against human HL-60 cells assessed as inhibition of cell growth; format: functional, cell-based
RS4-11 [16] = assay: Antiproliferative activity against human RS4-11 cells assessed as reduction in cell viability incubated for 72 hrs under light irradiation; format: functional, cell-based; conditions: RS4-11, light or radiation study
RS4-11 [17] = assay: Antiproliferative activity against human RS4-11 cells assessed as reduction in cell viability incubated for 72 hrs under dark condition; format: functional, cell-based; conditions: RS4-11, 72 h
[18] = molecular target: T1, Bromodomain-containing protein 4; assay: Induction of BRD4 degradation in human 231MFP cells; format: cell-based
[19] = molecular target: T1, Bromodomain-containing protein 4; assay: Induction of BRD4 degradation in human 231MFP cells at 10 uM incubated for 60 mins by Western blot analysis relative to control; format: cell-based
NAMALVA = assay: Antiproliferative activity against human NAMALVA cells; format: functional
[20] = Antiproliferative activity against human Burkitts lymphoma cells; format: functional; conditions: Burkitts lymphoma cell
[21] = molecular target: T1, Bromodomain-containing protein 4; assay: Binding affinity to BRD4 bromodomain 1 in human Ramos cells; format: cell-based
MV4-11 [22] = assay: Antiproliferative activity against human MV4-11 cells assessed as cell growth inhibition measured after […] by Cell Titre Glo Luminescent assay; format: functional, cell-based
SUD4 = assay: Antiproliferative activity against human SU-DHL-4 cells assessed as reduction in cell viability measured after 48 hrs by MTT assay; format: functional
[23] = molecular target: T1, Bromodomain-containing protein 4; assay: Induction of BRD4 degradation in human HeLa cells incubated for 24 hrs by Western blot analysis; format: cell-based

T2 sequence (P25440 whole entry): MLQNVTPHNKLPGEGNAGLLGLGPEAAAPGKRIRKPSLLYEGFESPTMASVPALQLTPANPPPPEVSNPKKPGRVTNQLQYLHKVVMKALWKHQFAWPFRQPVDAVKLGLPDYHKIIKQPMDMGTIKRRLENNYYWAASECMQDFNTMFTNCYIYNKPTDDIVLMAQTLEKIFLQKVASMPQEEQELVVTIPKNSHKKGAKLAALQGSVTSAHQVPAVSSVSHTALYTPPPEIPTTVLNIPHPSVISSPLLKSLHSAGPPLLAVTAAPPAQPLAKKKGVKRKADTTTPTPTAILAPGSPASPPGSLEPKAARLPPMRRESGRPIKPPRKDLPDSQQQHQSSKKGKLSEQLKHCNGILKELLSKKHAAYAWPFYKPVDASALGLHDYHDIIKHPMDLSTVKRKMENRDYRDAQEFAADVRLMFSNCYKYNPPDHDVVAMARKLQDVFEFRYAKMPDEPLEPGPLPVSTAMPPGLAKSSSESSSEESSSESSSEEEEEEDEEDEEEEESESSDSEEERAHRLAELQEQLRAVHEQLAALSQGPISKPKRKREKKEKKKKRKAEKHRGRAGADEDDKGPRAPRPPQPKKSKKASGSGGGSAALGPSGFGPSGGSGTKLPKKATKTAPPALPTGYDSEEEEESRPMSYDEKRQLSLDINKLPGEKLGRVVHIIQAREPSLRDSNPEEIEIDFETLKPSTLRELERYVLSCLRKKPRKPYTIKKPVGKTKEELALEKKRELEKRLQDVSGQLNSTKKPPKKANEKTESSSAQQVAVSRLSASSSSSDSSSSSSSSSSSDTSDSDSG
von Hippel-Lindau disease tumor suppressor/Bromodomain-containing protein 2, sequence (P25440 whole entry): as above
von Hippel-Lindau disease tumor suppressor/Bromodomain-containing protein 2, sequence (P40337 whole entry): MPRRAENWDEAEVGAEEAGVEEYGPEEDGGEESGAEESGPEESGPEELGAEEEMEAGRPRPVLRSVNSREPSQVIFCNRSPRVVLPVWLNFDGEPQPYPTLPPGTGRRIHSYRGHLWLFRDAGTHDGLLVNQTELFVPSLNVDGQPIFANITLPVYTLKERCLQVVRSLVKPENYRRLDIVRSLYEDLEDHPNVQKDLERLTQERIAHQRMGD
von Hippel-Lindau disease tumor suppressor, sequence (P40337 whole entry): as above
Bromodomain-containing protein 3, sequence (Q15059 whole entry): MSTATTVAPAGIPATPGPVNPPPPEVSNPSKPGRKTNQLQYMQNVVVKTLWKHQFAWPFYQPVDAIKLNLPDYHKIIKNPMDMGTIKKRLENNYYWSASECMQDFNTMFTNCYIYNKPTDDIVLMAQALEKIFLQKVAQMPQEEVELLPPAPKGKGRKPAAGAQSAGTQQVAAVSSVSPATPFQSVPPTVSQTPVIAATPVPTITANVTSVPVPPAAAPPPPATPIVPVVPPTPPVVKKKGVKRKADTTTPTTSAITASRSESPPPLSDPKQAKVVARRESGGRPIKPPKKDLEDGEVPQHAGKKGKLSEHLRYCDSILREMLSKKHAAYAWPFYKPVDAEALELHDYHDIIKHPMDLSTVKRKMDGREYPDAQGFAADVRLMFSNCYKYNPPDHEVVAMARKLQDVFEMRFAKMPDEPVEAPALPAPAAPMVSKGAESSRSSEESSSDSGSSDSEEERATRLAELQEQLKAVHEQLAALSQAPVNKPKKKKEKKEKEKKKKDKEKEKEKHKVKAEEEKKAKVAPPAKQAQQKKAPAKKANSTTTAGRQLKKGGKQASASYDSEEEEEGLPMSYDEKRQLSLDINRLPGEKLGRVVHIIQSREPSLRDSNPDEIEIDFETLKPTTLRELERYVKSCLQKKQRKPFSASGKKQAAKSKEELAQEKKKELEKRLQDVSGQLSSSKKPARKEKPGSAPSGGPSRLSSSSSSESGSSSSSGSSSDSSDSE

## Cc1ncsc1-c1ccc2c(c1)OCCOCCOC[C@@H](NC(=O)C[C@H]1N=C(c3ccc(Cl)cc3)c3c(sc(C)c3C)-n3c(C)nnc31)COCCOCCOCC(=O)N[C@@H](C(C)(C)C)C(=O)N1C[C@H](O)C[C@H]1C(=O)NC2
[1]
  Kd: 180 nM
[2]
  Kd: 47 nM
[3]
  Kd: 180 nM
[4]
  Activity: > 90%
MV4-11 [5]
  EC50: 300 nM
[6]
  DC50: 125 nM
CWR22R [7]
  EC50: 640 nM
[8]
  DC50: 25 nM

## Cc1sc2c(c1C)C(c1ccc(Cl)cc1)=N[C@@H](CC(=O)NCCOCCOCCN1CCOc3cc(N(CCC#N)C(=O)CCl)ccc31)c1nnc(C)n1-2
[9]
  DC50: 1100 nM
[10]
  Emax: 85%

## Cc1sc2c(c1C)C(c1ccc(Cl)cc1)=N[C@@H](CC(=O)Nc1ccc(O)cc1)c1nnc(C)n1-2 [BIRABRESIB]
CWR22R [11]
  inhibition in vivo at 30 mg/kg: 38%

## Cc1ncsc1-c1ccc([C@H](C)NC(=O)[C@@H]2C[C@@H](O)CN2C(=O)[C@@H](NC(=O)COCCCOCCNC(=O)C[C@@H]2N=C(c3ccc(Cl)cc3)c3c(sc(C)c3C)-n3c(C)nnc32)C(C)(C)C)cc1
EOL1
  IC50: 1.5 nM
[12]
  DC50: < 5 nM
[13]
  DC50: < 5 nM
[14]
  DC50: < 5 nM
Caspase-3/Caspase-7
  EC50: 90 nM
[15]
  IC50: < 1 nM
HL-60
  IC50: 1.5 nM

## COc1cc(/N=N/c2cccc3c2CN(C2CCC(=O)NC2=O)C3=O)cc(OC)c1OCC(=O)NCCCCNC(=O)C[C@@H]1N=C(c2ccc(Cl)cc2)c2c(sc(C)c2C)-n2c(C)nnc21 (some centres undefined)
RS4-11 [16]
  EC50: 88.5 nM
RS4-11 [17]
  EC50: 610 nM

## Cc1sc2c(c1C)C(c1ccc(Cl)cc1)=N[C@@H](CC(=O)NCCCNC(=O)CN1CCOc3cc(N(CCC#N)C(=O)CCl)ccc31)c1nnc(C)n1-2
[9]
  DC50: 810 nM
[10]
  Emax: 71%

## Cc1c(C(=O)NCCCCCNc2cccc3c2C(=O)N(C2CCC(=O)NC2=O)C3=O)sc2c1C(c1ccc(Cl)cc1)=N[C@@H](CC(=O)OC(C)(C)C)c1nnc(C)n1-2 (some centres undefined)
[9]
  DC50: 5 nM

## COC(=O)C[C@H]1[C@]2(C)C3=C(C)[C@H](c4ccoc4-c4ccc(C(=O)NCCCNC(=O)C[C@@H]5N=C(c6ccc(Cl)cc6)c6c(sc(C)c6C)-n6c(C)nnc65)cc4)C[C@H]3O[C@@H]2[C@@H]2OC(=O)[C@]3(C)C=CC(=O)[C@@]1(C)[C@@H]23
[18]
  IC50: 240 nM

## Cc1sc2c(c1C)C(c1ccc(Cl)cc1)=N[C@@H](CC(=O)NCCCCOc1ccc(Oc3ccc(N(Cc4ccccc4)C(=O)CCl)cc3)cc1)c1nnc(C)n1-2
[19]
  Activity: 30%

## COc1cc(CN(CCCCNC(=O)COc2cccc3c2C(=O)N(C2CCC(=O)NC2=O)C3=O)C(=O)C[C@@H]2N=C(c3ccc(Cl)cc3)c3c(sc(C)c3C)-n3c(C)nnc32)c([N+](=O)[O-])cc1OC (some centres undefined)
NAMALVA
  GI50: 340 nM
[20]
  GI50: 400 nM
[21]
  IC50: 7600 nM

## Cc1ncsc1-c1ccc(CNC(=O)[C@@H]2C[C@@H](O)CN2C(=O)[C@@H](NC(=O)COCCOCCOCCNC(=O)C[C@@H]2N=C(c3ccc(Cl)cc3)c3c(sc(C)c3C)-n3c(C)nnc32)C(C)(C)C)cc1
MV4-11 [22]
  EC50: 50.1 nM
EOL1
  IC50: 1.5 nM
Caspase-3/Caspase-7
  EC50: 150 nM
HL-60
  IC50: 1.5 nM

## Cc1sc2c(c1C)C(c1ccc(Cl)cc1)=N[C@@H](CC(=O)OC(C)(C)C)c1nnc(C)n1-2
SUD4
  GC50: 3120 nM

## Cc1ncsc1-c1ccc(CNC(=O)[C@@H]2[C@@H](F)[C@@H](O)CN2C(=O)[C@@H](NC(=O)COCCOCCOCCNC(=O)C[C@@H]2N=C(c3ccc(Cl)cc3)c3c(sc(C)c3C)-n3c(C)nnc32)C(C)(C)C)cc1
[23]
  DC50: 1 nM
